In patent US8097733B2, “Pyrazole derivatives as 5-LO-inhibitors” (Pfizer Inc., priority 2007, dated 2012) one finds IC50 data, which are given here for 20 compounds.

Each structure is given as a SMILES string.

The subject of experiment [1] is human whole blood (leukotriene and prostaglandin levels). Put plainly: Eicosanoid production from human whole blood. The experiment is classed as cell-based. The conditions noted are these: human whole blood stimulated with calcium ionophore A23187 and arachidonic acid; ELISA. As for the experimental part: Human whole blood is collected in 10 ml heparin tubes (Vacutainer, Becton Dickenson). Collected blood is pooled and 80 μL is dispensed into each well of 384 well polypropylene plates. A PlateMate is used to add 2 μL of compound solution in DMSO to the 80 μL of blood in the polypropylene plates. The plate, with blood and compound added, is incubated at room temperature for 10 minutes. 2 μL of a calcimycin (800 ng/ml) (A23187 C-7522, Sigma) and arachidonic acid (30 μM) (NU-Chek PREP, INC. S-1133) solution in 60% ethanol is then added to the blood using a Micromultidrop. The plates are then incubated at 37° C. in a shallow water bath for 15 minutes. Plates are then spun at 800 g for 10 minutes at 4° C. Supernatant is removed and assayed by Elisa (Caymen Chemical).
Eicosanoid Production from Human Whole Blood:
Human whole blood was collected from healthy or asthmatic human donors in 10 ml heparinized tubes (Vacutainer tubes; Becton Dickenson, Franklin Lakes, N.J.). Collected blood was pooled and 80 μL was dispensed into each well of 384 well polypropylene plates using a Multi-prop™ 384-well dispenser (Titertek, Huntsville, Ala.). Varying concentrations of compounds were dissolved in DMSO then 2 μL/well was added to the blood using a PlateMate Plus™ automated pipetting station (Matrix Technologies, Hudson, N.H.). The compounds were preincubated with the blood at room temperature for 10 minutes followed by stimulation with 40 μM calcium ionophore (A23187, Sigma Chemical Co, St. Louis, Mo., Cat. # C-7522) and 30 μM arachidonic acid (S-1133, NU-Chek PREP, Inc., Elysian, MN, Cat. # S-1133) dissolved in 60% ethanol. After 15 min incubation at 37° C. in a shallow water bath, the blood was centrifuged at 8009 for 10 minutes at 4° C., the supernatants collected, and leukotriene and prostaglandin levels measured by ELISA according to the manufacturer's directions (Cayman Chemical Company, Ann Arbor, Mich.). The assay was performed at a final concentration of 2.5% DMSO.
In general terms: In an ELISA, binding on a coated surface is turned into a signal by an enzyme label.

For the next experiment, the target named is T1, recombinant human 5-LOX (Homo sapiens, UniProt P09917).
T1 sequence (P09917 1-674): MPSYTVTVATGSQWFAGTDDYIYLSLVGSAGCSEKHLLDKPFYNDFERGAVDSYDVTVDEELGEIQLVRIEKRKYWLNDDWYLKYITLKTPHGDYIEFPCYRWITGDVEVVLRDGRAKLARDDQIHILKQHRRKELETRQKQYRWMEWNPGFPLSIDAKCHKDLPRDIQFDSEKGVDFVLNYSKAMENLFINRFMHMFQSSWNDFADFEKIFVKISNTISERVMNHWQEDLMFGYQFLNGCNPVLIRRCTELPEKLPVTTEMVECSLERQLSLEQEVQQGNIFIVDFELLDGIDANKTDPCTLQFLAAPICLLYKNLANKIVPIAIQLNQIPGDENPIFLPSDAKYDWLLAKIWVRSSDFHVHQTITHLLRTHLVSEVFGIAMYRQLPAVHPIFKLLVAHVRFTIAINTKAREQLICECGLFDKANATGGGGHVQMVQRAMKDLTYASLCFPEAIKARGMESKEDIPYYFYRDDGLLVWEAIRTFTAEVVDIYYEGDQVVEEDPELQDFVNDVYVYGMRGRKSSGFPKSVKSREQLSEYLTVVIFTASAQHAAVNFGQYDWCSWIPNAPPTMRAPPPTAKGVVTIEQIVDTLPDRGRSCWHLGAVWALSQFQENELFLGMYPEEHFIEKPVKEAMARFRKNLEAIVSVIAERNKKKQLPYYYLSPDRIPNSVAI
Put plainly: Fluorescence Intensity 5-LOX Enzyme Assay. It counts as biochemical. The conditions noted are these: crude lysate of recombinant human 5-LOX; highest inhibitor concentration tested typically 25 μM. The text has this:
Bio Data Assays for Allergic and Non Allergic Airways Diseases Fluorescence Intensity 5-LOX Enzyme Assay
The enzyme assay is based on the oxidation of the non-fluorescent compound 2′7′-dichlorodihydrofluorescein diacetate (H2DCFDA) to the fluorescent 2′,7′-dichlorofluorescein by 5-LOX in an arachidonic acid-dependent reaction. Ester cleavage of the acetate groups of the substrate H2DCFDA must occur prior to oxidation. This is achieved through use of a crude cell lysate preparation of recombinant human 5-LOX. The enzyme assay ([…]) contained 50 mM Tris (pH 7.5), 2 mM CaCl2, 2 mM EDTA, 3 μM arachidonic acid (Nu-Chek Prep; #S-1133), 10 μM ATP, 10 μM H2DCFDA (Invitrogen; #D399), inhibitor (varying concentration) and recombinant human 5-LOX enzyme (1.25 μL crude lysate per well).
Inhibitors (dissolved in DMSO) were plated into a 384-well assay plate (Corning #3654) at 1 μL followed by a 20 μL addition of a solution containing 5-LO enzyme and H2DCFDA. Enzyme and H2DCFDA were pre-incubated for 5 min to allow time for acetate group cleavage of the dye prior to addition to the assay plate. After a 10 min pre-incubation of inhibitor and enzyme/dye mix, the assay was initiated by the addition of a substrate solution containing arachidonic acid and ATP. The enzymatic reaction was run for 20 min at room temperature and terminated by the addition of 40 μL of acetonitrile. Assay plates were read in a plate reader using standard wavelengths for fluorescein. IC50s of inhibitors were calculated using a 4-parameter fit using 7 inhibitor concentrations in duplicate with 3-fold serial dilutions. Controls on each plate included no inhibitor (zero percent effect) and 25 μM C J-13610 (one hundred percent effect). The highest inhibitor concentration tested was typically 25 μM. The final DMSO concentration in the assay was 2.5%.

One may read the IC50 as the point on the concentration scale where inhibition reaches its midpoint. In the case of `Cn1nccc1-c1ccc(Sc2cccc(C3(C(N)=O)CCOCC3)c2)c(F)c1` [Example 12, 4-(3-{[2-Fluoro-4-(1-methyl-1H-pyrazol-5-yl)phenyl]thio}phenyl)tetrahydro-2H-pyran-4-carboxamide], the IC50 in experiment [1] was determined as 267 nM; at recombinant human 5-LOX it was 454 nM.

Turning to `Cc1cc(Sc2cccc(C3(C(N)=O)CCOCC3)c2)ccc1-c1ccnn1C` [Example 14, 4-(3-{[3-methyl-4-(1-methyl-1H-pyrazol-5-yl)phenyl]thio}phenyl)tetrahydro-2H-pyran-4-carboxamide], the IC50 came to 447 nM in experiment [1] and 110 nM on recombinant human 5-LOX.

In the case of `CNC(=O)C1(c2cc(F)cc(Sc3ccc(-c4ccnn4C)cc3)c2)CCOCC1` [Example 18, 4-(3-fluoro-5-{[4-(1-methyl-1H-pyrazol-5-yl)phenyl]thio}-phenyl)-N-methyltetrahydro-2H-pyran-4-carboxamide], the IC50 in experiment [1] turned out to be 596 nM; on recombinant human 5-LOX, 369 nM.

As for `C[C@H]1C[C@@](C#N)(c2cccc(Sc3ccc(-c4ccnn4C)cc3F)c2F)CCO1` [Example 25], the IC50 was 83.6 nM in experiment [1] and 32.9 nM at recombinant human 5-LOX.

In the case of `C[C@H]1C[C@@](C(N)=O)(c2cccc(Sc3ccc(-c4ccnn4C)cc3F)c2F)CCO1` [Example 26, (2S,4R)-4-(2-fluoro-3-(2-fluoro-4-(1-methyl-1H-pyrazol-5-yl)phenylthio)phenyl)-2-methyl-tetrahydro-2H-pyran-4-carboxamide], the values for the IC50 (in experiment [1]; at recombinant human 5-LOX) were 690 nM and 28.4 nM, respectively.

In the case of `C[C@H]1C[C@@](C(N)=O)(c2cccc(Sc3ccc(-c4ccnn4C)c(F)c3)c2)CCO1` [Example 30, (2S,4R)-4-(3-(3-fluoro-4-(1-methyl-1H-pyrazol-5-yl)phenylthio)phenyl)-2-methyl-tetrahydro-2H-pyran-4-carboxamide], the IC50 worked out at 200 nM in experiment [1] and 14 nM at recombinant human 5-LOX.

Consider `C[C@H]1C[C@@](C(N)=O)(c2cccc(Sc3ccc(-c4ccnn4C)c(F)c3)c2F)CCO1` [Example 31, (2S,4R)-4-(2-fluoro-3-(3-fluoro-4-(1-methyl-1H-pyrazol-5-yl)phenylthio)phenyl)-2-methyl-tetrahydro-2H-pyran-4-carboxamide], for which the IC50 is 337 nM in experiment [1] and 15.5 nM on recombinant human 5-LOX.

As for `C[C@H]1C[C@@](C(N)=O)(c2cc(F)cc(Sc3ccc(-c4ccnn4C)c(F)c3)c2)CCO1` [Example 32, (2S,4R)-4-(3-fluoro-5-(3-fluoro-4-(1-methyl-1H-pyrazol-5-yl)phenylthio)phenyl)-2-methyl-tetrahydro-2H-pyran-4-carboxamide], the IC50 worked out at 232 nM in experiment [1] and 16.8 nM on recombinant human 5-LOX.

Turning to `Cn1nccc1Cc1ccc(Sc2cccc(C3(C(N)=O)CCOCC3)c2)cc1` [Example 35, 4-[3-({4-[(1-methyl-1H-pyrazol-5-yl)methyl]phenyl}thio)phenyl]tetrahydro-2H-pyran-4-carboxamide], the IC50 in experiment [1] came to 769 nM; at recombinant human 5-LOX, 313 nM.

Take `Cn1nccc1C(=O)c1ccc(Sc2cccc(C3(C(N)=O)CCOCC3)c2)cc1Cl` [Example 36]: the IC50 in experiment [1] came out at 466 nM; on recombinant human 5-LOX, 188 nM.

Take `Cn1nccc1C(=O)c1ccc(Sc2cccc(C3(C(N)=O)CCOCC3)c2)cc1C(F)(F)F` [Example 37, 4-[3-({4-[(1-methyl-1H-pyrazol-5-yl)carbonyl]-3-(trifluoromethyl)phenyl}thio)phenyl]tetrahydro-2H-pyran-4-carboxamide]: the IC50 in experiment [1] amounted to 394 nM; on recombinant human 5-LOX it was 60.7 nM.

Consider `Cn1nccc1C(=O)c1ccc(Sc2cccc(C3(C(N)=O)CCOCC3)c2)cc1C#N` [Example 38, 4-[3-({3-cyano-4-[(1-methyl-1H-pyrazol-5-yl)carbonyl]phenyl}thio)phenyl]tetrahydro-2H-pyran-4-carboxamide], for which the IC50 in experiment [1] was determined as 640 nM; on recombinant human 5-LOX it was 469 nM.

For `Cn1nccc1C(=O)c1ncc(Sc2cccc(C3(C(N)=O)CCOCC3)c2)cc1Cl` [Example 42, 4-(3-(5-chloro-6-(1-methyl-1H-pyrazole-5-carbonyl)pyridin-3-ylthio)phenyl)-tetrahydro-2H-pyran-4-carboxamide], the 50% inhibitory concentration (IC50) in experiment [1] came to 851 nM; on recombinant human 5-LOX it was 737 nM.

Regarding `COc1ccc(C2(C#N)CCOCC2)cc1Sc1ccc(-c2ccnn2C)cc1` [Example 43, 4-(4-methoxy-3-(4-(1-methyl-1H-pyrazol-5-yl)phenylthio)phenyl)-tetrahydro-2H-pyran-4-carbonitrile], the IC50 is 913 nM in experiment [1] and 575 nM on recombinant human 5-LOX.

With `COc1ccc(C2(C(N)=O)CCOCC2)cc1Sc1ccc(-c2ccnn2C)cc1` [Example 44, 4-(4-methoxy-3-(4-(1-methyl-1H-pyrazol-5-yl)phenylthio)phenyl)-tetrahydro-2H-pyran-4-carboxamide], the values for the half-inhibitory concentration (IC50) (in experiment [1]; at recombinant human 5-LOX) were 866 nM and 138 nM, respectively.

With `Cn1nccc1-c1ccc(Sc2cccc(C3(C#N)CCOCC3)c2F)c(F)c1` [Example 45, 4-(2-fluoro-3-(2-fluoro-4-(1-methyl-1H-pyrazol-5-yl)phenylthio)phenyl)tetrahydro-2H-pyran-4-carbonitrile], the IC50 in experiment [1] worked out at 33 nM; at recombinant human 5-LOX, 84 nM.

For the compound `Cn1nccc1-c1ncc(Sc2cccc(C3(C#N)CCOCC3)c2)cc1Cl` [Example 47, 4-(3-{[5-chloro-6-(1-methyl-1H-pyrazol-5-yl)pyridin-3-yl]thio}phenyl)tetrahydro-2H-pyran-4-carbonitrile], the IC50 in experiment [1] was 676 nM; at recombinant human 5-LOX it was 7770 nM.

In the case of `Cn1nccc1-c1ccc(Sc2cccc(C3(C#N)CCOCC3)c2)cc1` [Example 49, 4-(3-{[4-(1-methyl-1H-pyrazol-5-yl)phenyl]thio}phenyl)tetrahydro-2H-pyran-4-carbonitrile], the IC50 came to 999 nM in experiment [1] and 2710 nM at recombinant human 5-LOX.

Regarding `C[C@H]1C[C@@](C#N)(c2cccc([S+]([O-])c3ccc(-c4ccnn4C)cc3)c2F)CCO1` (stereo partly drawn) [Example 54, (2S,4R)-4-(2-fluoro-3-(4-(1-methyl-1H-pyrazol-5-yl)phenylsulfinyl)phenyl)-2-methyl-tetrahydro-2H-pyran-4-carbonitrile], the IC50 turned out to be 1160 nM in experiment [1] and 447 nM at recombinant human 5-LOX.

Consider `CCc1cn[nH]c1-c1ccc(Sc2cccc(C3(C(N)=O)CCOCC3)c2)cc1` [Example 59, 4-(3-{[4-(4-ethyl-1H-pyrazol-5-yl)phenyl]thio}phenyl)tetrahydro-2H-pyran-4-carboxamide], for which the IC50 in experiment [1] came out at 890 nM; at recombinant human 5-LOX, 816 nM.
